ChEMBL document CHEMBL1125568, “ATP-citrate lyase as a target for hypolipidemic intervention. Sulfoximine and 3-hydroxy-beta-lactam containing analogues of citric acid as potential tight-binding inhibitors” (J Med Chem, 1992)

T1: ATP-citrate synthase (Rattus norvegicus) (UniProt P16638)
T1 sequence (whole entry): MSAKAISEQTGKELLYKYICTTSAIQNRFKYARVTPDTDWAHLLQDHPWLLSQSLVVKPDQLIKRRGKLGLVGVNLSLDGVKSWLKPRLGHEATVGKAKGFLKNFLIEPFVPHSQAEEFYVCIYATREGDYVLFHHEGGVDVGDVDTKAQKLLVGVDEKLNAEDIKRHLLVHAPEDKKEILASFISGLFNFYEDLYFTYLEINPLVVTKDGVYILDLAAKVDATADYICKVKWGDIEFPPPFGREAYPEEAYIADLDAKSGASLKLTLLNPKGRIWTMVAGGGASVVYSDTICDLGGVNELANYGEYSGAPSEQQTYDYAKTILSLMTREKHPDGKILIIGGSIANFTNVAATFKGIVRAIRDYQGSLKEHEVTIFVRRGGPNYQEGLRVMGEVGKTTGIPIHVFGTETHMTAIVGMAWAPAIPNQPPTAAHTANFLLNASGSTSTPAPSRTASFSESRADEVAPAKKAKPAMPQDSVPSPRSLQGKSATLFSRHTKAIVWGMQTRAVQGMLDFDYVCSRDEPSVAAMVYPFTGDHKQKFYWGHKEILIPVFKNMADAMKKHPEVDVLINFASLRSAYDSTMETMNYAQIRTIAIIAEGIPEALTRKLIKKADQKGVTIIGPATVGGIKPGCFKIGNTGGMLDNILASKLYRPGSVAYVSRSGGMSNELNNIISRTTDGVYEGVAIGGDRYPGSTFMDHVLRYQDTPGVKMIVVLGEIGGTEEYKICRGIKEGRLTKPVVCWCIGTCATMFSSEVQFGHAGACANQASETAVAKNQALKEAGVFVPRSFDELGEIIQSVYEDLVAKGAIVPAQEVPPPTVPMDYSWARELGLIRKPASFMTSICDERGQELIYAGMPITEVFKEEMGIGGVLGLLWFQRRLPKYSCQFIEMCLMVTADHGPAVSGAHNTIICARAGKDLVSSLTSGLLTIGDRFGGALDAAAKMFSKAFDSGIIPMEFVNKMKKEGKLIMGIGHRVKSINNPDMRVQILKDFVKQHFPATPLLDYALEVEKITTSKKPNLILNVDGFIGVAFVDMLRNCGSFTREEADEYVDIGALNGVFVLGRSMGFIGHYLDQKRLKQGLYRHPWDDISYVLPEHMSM

T2: ATP-citrate synthase (Rattus norvegicus, UniProt P16638)
T2 sequence (P16638 whole entry): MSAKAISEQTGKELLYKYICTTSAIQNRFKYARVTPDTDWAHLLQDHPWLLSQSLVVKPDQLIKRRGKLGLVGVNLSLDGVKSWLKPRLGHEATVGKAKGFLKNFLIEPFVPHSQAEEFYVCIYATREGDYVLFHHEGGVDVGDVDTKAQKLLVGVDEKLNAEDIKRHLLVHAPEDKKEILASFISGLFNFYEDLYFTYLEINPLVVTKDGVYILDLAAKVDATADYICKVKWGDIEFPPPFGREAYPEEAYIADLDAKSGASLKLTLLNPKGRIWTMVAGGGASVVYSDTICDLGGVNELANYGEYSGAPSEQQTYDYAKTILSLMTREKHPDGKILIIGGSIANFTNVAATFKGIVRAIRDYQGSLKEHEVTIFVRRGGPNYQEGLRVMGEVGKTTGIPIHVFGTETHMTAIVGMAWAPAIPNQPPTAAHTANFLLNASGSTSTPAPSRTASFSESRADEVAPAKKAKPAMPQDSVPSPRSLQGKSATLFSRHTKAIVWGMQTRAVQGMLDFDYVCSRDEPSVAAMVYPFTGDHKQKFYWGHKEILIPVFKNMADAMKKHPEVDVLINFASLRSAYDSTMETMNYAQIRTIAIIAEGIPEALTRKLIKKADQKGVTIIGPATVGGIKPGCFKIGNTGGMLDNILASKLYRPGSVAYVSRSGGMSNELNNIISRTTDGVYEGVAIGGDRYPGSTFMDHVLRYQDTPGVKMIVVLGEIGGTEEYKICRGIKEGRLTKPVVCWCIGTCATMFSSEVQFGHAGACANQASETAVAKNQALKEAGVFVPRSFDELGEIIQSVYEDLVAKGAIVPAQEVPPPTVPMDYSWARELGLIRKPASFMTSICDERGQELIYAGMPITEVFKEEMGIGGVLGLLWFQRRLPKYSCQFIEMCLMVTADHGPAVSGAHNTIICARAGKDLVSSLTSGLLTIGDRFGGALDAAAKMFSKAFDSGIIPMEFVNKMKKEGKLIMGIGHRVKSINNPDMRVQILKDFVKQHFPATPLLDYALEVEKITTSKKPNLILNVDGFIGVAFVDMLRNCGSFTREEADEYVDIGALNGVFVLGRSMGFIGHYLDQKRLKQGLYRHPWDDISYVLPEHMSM


What was measured:
[1] = biological target: T1, ATP-citrate synthase (Rattus norvegicus); test: Inhibitory activity against rat ATP-Citrate lyase measured in terms of Vmax.
ATP-citrate synthase = biological target: T2, ATP-citrate synthase; test: Reversible binding Ki was measured by the inhibition of the carbon-carbon bond cleavage activity against rat ATP-Citrate Lyase
[2] = substrate: O=C(O)CC(O)(CC(=O)O)C(=O)O
[3] = compound: C[S+](=N)([O-])C[C@@](O)(CC(=O)O)C(=O)O; test: Inhibitory activity against rat ATP-Citrate lyase measured in terms of Km.

Molecule	Ki (ATP-citrate synthase)	other results
C[S+](=N)([O-])C[C@@](O)(CC(=O)O)C(=O)O (stereo in doubt; 12b) [listing 1 of 2 here]		Relative Vmax [1]: < 0.003
O=C(O)C[C@H](C[C@@]1(O)CNC1=O)C(=O)O	> 20 mM	
O=C(O)C[C@H](C[C@]1(O)CNC1=O)C(=O)O	> 9 mM	
C[S+](=N)([O-])C[C@@](O)(CC(=O)O)C(=O)O (stereo in doubt; 12b) [listing 2 of 2 here]	> 10 mM	
C[S+](=N)([O-])C[C@@](O)(CC(=O)O)C(=O)O (stereo in doubt; 12a) [listing 1 of 2 here]	0.25 mM	
C[S+](=N)([O-])C[C@@](O)(CC(=O)O)C(=O)O (stereo in doubt; 12a) [listing 2 of 2 here]		Relative Vmax [1]: 0.25
ATP-citrate synthase (Rattus norvegicus), P16638 (protein) MSAKAISEQTGKELLYKYICTTSAIQNRFKYARVTPDTDWAHLLQDHPWLLSQSLVVKPDQLIKRRGKLGLVGVNLSLDGVKSWLKPRLGHEATVGKAKGFLKNFLIEPFVPHSQAEEFYVCIYATREGDYVLFHHEGGVDVGDVDTKAQKLLVGVDEKLNAEDIKRHLLVHAPEDKKEILASFISGLFNFYEDLYFTYLEINPLVVTKDGVYILDLAAKVDATADYICKVKWGDIEFPPPFGREAYPEEAYIADLDAKSGASLKLTLLNPKGRIWTMVAGGGASVVYSDTICDLGGVNELANYGEYSGAPSEQQTYDYAKTILSLMTREKHPDGKILIIGGSIANFTNVAATFKGIVRAIRDYQGSLKEHEVTIFVRRGGPNYQEGLRVMGEVGKTTGIPIHVFGTETHMTAIVGMAWAPAIPNQPPTAAHTANFLLNASGSTSTPAPSRTASFSESRADEVAPAKKAKPAMPQDSVPSPRSLQGKSATLFSRHTKAIVWGMQTRAVQGMLDFDYVCSRDEPSVAAMVYPFTGDHKQKFYWGHKEILIPVFKNMADAMKKHPEVDVLINFASLRSAYDSTMETMNYAQIRTIAIIAEGIPEALTRKLIKKADQKGVTIIGPATVGGIKPGCFKIGNTGGMLDNILASKLYRPGSVAYVSRSGGMSNELNNIISRTTDGVYEGVAIGGDRYPGSTFMDHVLRYQDTPGVKMIVVLGEIGGTEEYKICRGIKEGRLTKPVVCWCIGTCATMFSSEVQFGHAGACANQASETAVAKNQALKEAGVFVPRSFDELGEIIQSVYEDLVAKGAIVPAQEVPPPTVPMDYSWARELGLIRKPASFMTSICDERGQELIYAGMPITEVFKEEMGIGGVLGLLWFQRRLPKYSCQFIEMCLMVTADHGPAVSGAHNTIICARAGKDLVSSLTSGLLTIGDRFGGALDAAAKMFSKAFDSGIIPMEFVNKMKKEGKLIMGIGHRVKSINNPDMRVQILKDFVKQHFPATPLLDYALEVEKITTSKKPNLILNVDGFIGVAFVDMLRNCGSFTREEADEYVDIGALNGVFVLGRSMGFIGHYLDQKRLKQGLYRHPWDDISYVLPEHMSM		Km [2]: 110 µM; Km [3]: 1300 µM
